Broadly, the pIC50 is the negative decadic logarithm of the IC50, by convention in mol/L. Low readings indicate a large IC50, high ones a small IC50.

Data set [1] deals with T1, Na^+ /H^+ exchanger of rabbit erythrocytes (Oryctolagus cuniculus, UniProt P23791).
T1 construct: determine the Na^+ influx into the erythrocytes via Na^+ /H^+ exchange by flame photometry; endogenous in cells; host or cells: erythrocytes in blood from the ear arteries of cholesterol-fed White New Zealand rabbits (Ivanovas)
T1 sequence (P23791 whole entry): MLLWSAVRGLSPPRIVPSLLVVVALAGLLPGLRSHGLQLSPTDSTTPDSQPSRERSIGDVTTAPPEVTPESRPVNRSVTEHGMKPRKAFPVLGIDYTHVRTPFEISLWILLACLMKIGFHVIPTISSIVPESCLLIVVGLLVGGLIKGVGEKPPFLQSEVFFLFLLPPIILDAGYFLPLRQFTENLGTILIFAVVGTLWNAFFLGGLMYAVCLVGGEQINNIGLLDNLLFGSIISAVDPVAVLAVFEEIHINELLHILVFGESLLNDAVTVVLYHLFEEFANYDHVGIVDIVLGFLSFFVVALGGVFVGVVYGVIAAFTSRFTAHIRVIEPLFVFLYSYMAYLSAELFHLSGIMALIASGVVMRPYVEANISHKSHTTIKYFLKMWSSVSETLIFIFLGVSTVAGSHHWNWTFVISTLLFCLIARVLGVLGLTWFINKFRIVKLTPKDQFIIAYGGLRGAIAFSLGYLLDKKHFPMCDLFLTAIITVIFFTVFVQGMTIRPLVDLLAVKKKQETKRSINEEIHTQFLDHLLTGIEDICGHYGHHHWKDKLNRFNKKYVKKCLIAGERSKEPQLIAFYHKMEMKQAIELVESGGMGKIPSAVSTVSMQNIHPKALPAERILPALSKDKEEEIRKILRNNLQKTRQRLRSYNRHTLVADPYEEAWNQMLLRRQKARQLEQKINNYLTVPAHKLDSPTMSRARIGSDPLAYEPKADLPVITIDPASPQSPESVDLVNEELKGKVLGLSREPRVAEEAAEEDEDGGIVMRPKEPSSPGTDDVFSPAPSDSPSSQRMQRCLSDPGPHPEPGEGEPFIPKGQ
Put plainly: Inhibition of the Na^+ /H^+ Exchanger of Rabbit Erythrocytes (amiloride-sensitive Na^+ influx, flame photometry). To be noted: cholesterol-fed rabbits, pH 7.4, 37° C. The data set is classed as cell-based, rabbit (White New Zealand). The text has this: Inhibition of the Na^+ /H^+ Exchanger of Rabbit Erythrocytes
White New Zealand rabbits (Ivanovas) were given a standard diet with 2% of cholesterol for six weeks in order to activate the Na^+ /H^+ exchange and in this way to be able to determine the Na^+ influx into the erythrocytes via Na^+ /H^+ exchange by flame photometry. The blood was removed from the ear arteries and rendered noncoagulable by 25 IU of potassium-heparin. A portion of each sample was used for duplicate determination of the hematocrit by centrifugation. Aliquots of in each case 100 μl were used for measurement of the starting Na^+ content of the erythrocytes.
To determine the amiloride-sensitive sodium influx, 100 μl of each blood sample were incubated in 5 ml portions each of a hyperosmolar salt/sucrose medium (mmol/l: 140 NaCl, 3 KCl, 150 sucrose, 0.1 ouabain, 20 tris-hydroxymethylaminomethane) at pH 7.4 and 37° C. The erythrocytes were then washed three times with ice-cold MgCl2 /ouabain solution (mmol/l: 112 MgCl2, 0.1 ouabain) and hemolyzed in 2.0 ml of distilled water. The intracellular sodium content was determined by flame photometry.
The Na^+ net influx was calculated from the difference between the starting sodium values and the sodium content of the erythrocytes after incubation. The sodium influx which can be inhibited by amiloride resulted from the difference between the sodium content of the erythrocytes after incubation with and without 3×10^-4 mol/l of amiloride. This procedure was also followed with compounds according to the invention.

Another data set relates to rat hearts. To be noted: isolated rat hearts, cited from earlier work.
The conditions of data set [2]: cited from earlier work.

pIC50: −log10 of the molar value. Structures can show the parent of a compound that is named as a salt.

As to `Cc1ccc2cc(Oc3ccc(C(=O)N=C(N)N)cc3C(F)(F)F)ccc2[n+]1[O-]` [Example 3, 4-(quinaldine N-oxide-6-yloxy)-3-trifluoromethyl-benzoylguanidine, hydrochloride], the pIC50 in data set [1] is 7.72.
Regarding `CCN(c1nc(N)c(C(=O)NC(=N)N)nc1Cl)C(C)C` [ethylisopropylamiloride], in the data set with rat hearts (compared with amiloride), the “potency relative to amiloride in this model (ventricular fibrillation)” value was “even more potent than amiloride”.
`Cc1ccc2cc(Oc3ccc(C(=O)N=C(N)N)cc3S(C)(=O)=O)ccc2[n+]1[O-]` [Example 2, 4-(quinaldine N-oxide-6-yloxy)-3-methylsulfonyl-benzoylguanidine, hydrochloride] showed a negative logarithm of the IC50 (pIC50) in data set [1] of 6.52.
In the case of `NC(N)=NC(=O)c1nc(Cl)c(N)nc1N` [amiloride, Amiloride], the antiarrhythmic effect entry in data set [2] (Circulation 79, 1257-63 (1989)) is given as “only weak”. The “accompanying action (side-effects)” value in data set [2] (accompanies the antiarrhythmic effect) is “antihypertensive and saluretic action”. For the same molecule, in the data set with rat hearts (Eur. Heart J. 9 (suppl. 1): 167 (1988)), the “suppression of artificially induced ventricular fibrillation” value is on record as “suppressed completely”.
Turning to `NC(N)=NC(=O)c1ccc(Oc2ccc[n+]([O-])c2)c(C(F)(F)F)c1` [Example 1, 4-(pyridine N-oxide-3-yloxy)-3-trifluoromethyl-benzoylguanidine, hydrochloride], the pIC50 in data set [1] was 7.10.

(Values after patent US5641792A, “Benzoylguanidines substituted by heterocyclic N-oxide, process for their preparation and pharmaceutical compositions containing them” (priority 1994, dated 1997).)
